Test results from PMC10461224, “Development of an Affinity-Based Probe to Profile Endogenous Human Adenosine A3 Receptor Expression” (Journal of Medicinal Chemistry, 2023).
Marks after values point to notes of the source that are not given here.

Key:
Type in all cases: binding
human A2AAR (hA2AAR) = molecular target: T1, human A2AAR (hA2AAR) (Homo sapiens, UniProt P29274); assay: Single-point radioligand displacement, [3H]ZM241385; conditions: 1 μM probe; HEK293 cell membranes; co-incubated with radioligand 30 min at 25 °C; mean of two experiments
T1 construct: expressed in transfected cells; host or cells: HEK293 cells (HEKhA2AAR), gift of Dr. J. Wang, Biogen; membrane fractions
Experimental: (§1) Membrane aliquots containing 15 μg (CHOhA3AR), 5 μg (CHOhA1AR), or 30 μg (HEK293hA2AAR and CHO-spap-A2BAR) of protein were resuspended in assay buffer (A3AR: 50 mM Tris–HCl, pH 8.0, 10 mM MgCl2, 1 mM EDTA, 0.01% CHAPS; A1AR and A2AAR: 50 mM Tris–HCl, pH 7.4; A2BAR: 50 mM Tris–HCl, pH 7.4, 0.1% CHAPS). […] Nonspecific binding was determined in the presence of 100 μM NECA (A3AR), 100 μM CPA (A1AR), 100 μM NECA (A2AAR), and 10 μM ZM241385 (A2BAR). Incubations were terminated by rapid vacuum filtration to separate the bound and free radioligand through prewetted 96-well GF/C filter plates using a PerkinElmer Filtermate harvester. Filters were subsequently washed 12 times with ice-cold wash buffer (A3AR: 50 mM Tris–HCl, pH 8.0, 10 mM MgCl2, 1 mM EDTA; A1AR and A2AAR: 50 mM Tris–HCl, pH 7.4; A2BAR: 50 mM Tris–HCl, pH 7.4, 0.1% BSA). The plates were dried at 55 °C, and MicroscintTM-20 cocktail (PerkinElmer) was added subsequently.
(§2) Single point displacement values shown are mean percentages of two individual experiments performed in duplicate. All pKi values shown are mean values ± SEM of three individual experiments performed in duplicate.

hA3AR [1] = molecular target: T2, hA3AR (Homo sapiens, UniProt P0DMS8); assay: Single-point radioligand displacement, [3H]PSB-11; conditions: 1 μM probe; CHO cell membranes; co-incubated with radioligand 30 min at 25 °C; mean of two experiments
T2 construct: expressed in transfected cells; host or cells: CHO cells (CHOhA3AR), gift of Prof; K.N. Klotz, University of Würzburg; used as membrane fractions or live cells
T2 sequence (P0DMS8 1-318): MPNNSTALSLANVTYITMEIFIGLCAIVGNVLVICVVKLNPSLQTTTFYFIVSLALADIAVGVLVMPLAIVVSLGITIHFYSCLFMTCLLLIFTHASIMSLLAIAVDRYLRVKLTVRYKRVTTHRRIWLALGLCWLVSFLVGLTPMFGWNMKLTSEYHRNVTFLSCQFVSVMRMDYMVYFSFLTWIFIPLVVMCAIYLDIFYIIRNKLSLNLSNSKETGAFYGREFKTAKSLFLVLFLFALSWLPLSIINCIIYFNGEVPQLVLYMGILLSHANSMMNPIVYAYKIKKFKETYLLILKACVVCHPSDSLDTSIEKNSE
Experimental: as §1, §2

hA3AR [2] = molecular target: T2, hA3AR; assay: Full curve radioligand displacement assay on the adenosine A3 receptor, [3H]PSB-11; conditions: mean ± SEM, n=3; for apparent pKi (pre-0 h) / apparent pKi (pre-4 h): CHO-hA3AR membranes, 25 °C; for apparent pKi (pre-0 h): 0.5 h co-incubation of probe and radioligand, no pre-incubation; for apparent pKi (pre-4 h): 4 h pre-incubation with probe then 0.5 h co-incubation with radioligand; for fold change, ratio Ki(0 h)/Ki(4 h): hA3AR
Experimental: Membrane aliquots containing 15 μg of protein (CHOhA3AR) were resuspended in assay buffer (50 mM Tris–HCl, pH 8.0, 10 mM MgCl2, 1 mM EDTA, 0.01% CHAPS). The competing ligand (concentrations ranging from 0.1 to 1000 nM) was added and pre-incubated with the membrane fractions for either 0 or 4 h. The radioligand (10 nM [^3H]PSB-11) was then added and incubated with the samples in a total volume of 100 μL of assay buffer for 30 min at 25 °C. Nonspecific binding was determined in the presence of 100 μM NECA. Incubations were terminated by rapid vacuum filtration through prewetted 96-well GF/C filter plates using a PerkinElmer Filtermate harvester. Filters were subsequently washed 12 times with ice-cold wash buffer (50 mM Tris–HCl, pH 8.0, 10 mM MgCl2, 1 mM EDTA). The plates were dried at 55 °C, and MicroscintTM-20 cocktail (PerkinElmer) was added subsequently. After 3 h, the filter-bound radioactivity was determined using a Tri-Carb 2810TR Liquid Scintillation Analyzer (PerkinElmer).
(§3) […]. Single point displacement values shown are mean percentages of two individual experiments performed in duplicate. All pKi values shown are mean values ± SEM of three individual experiments performed in duplicate. Statistical analysis was performed using a one-way ANOVA test with multiple comparisons (****p < 0.0001).

hA1AR = molecular target: T3, hA1AR (Homo sapiens, UniProt P30542); assay: Full curve displacement assays on the hA1AR; conditions: from full curve displacement assays (Table S1)
T3 construct: expressed in transfected cells; host or cells: CHO cells (CHOhA1AR), gift of Prof; S.J. Hill, University of Nottingham; membrane fractions
T3 sequence (P30542 1-326): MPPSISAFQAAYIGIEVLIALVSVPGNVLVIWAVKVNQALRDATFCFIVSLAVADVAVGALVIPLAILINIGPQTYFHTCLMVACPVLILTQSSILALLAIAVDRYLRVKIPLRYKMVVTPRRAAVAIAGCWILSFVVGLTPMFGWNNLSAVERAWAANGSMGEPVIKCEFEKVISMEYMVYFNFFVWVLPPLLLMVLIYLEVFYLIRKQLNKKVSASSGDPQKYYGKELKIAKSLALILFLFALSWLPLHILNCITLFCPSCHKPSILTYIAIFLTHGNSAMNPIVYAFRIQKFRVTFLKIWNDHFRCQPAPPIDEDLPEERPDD
Experimental: The affinity of the synthesized AfBPs was determined in radioligand binding experiments. First, single concentration displacement assays were carried out on all four human adenosine receptors, using a final probe concentration of 1 μM (Table 1). […] This quick screen indicated a good selectivity toward the hA3AR over the other human ARs, a trend that was also observed in the case of the parent compound.[34] Next, the ‘apparent’ affinities (depicted as pKi values) toward the hA3AR were determined using full curve displacement assays. To study the presumable covalent mode of action, the apparent affinity was determined with (pre-4 h) and without (pre-0 h) 4 h of pre-incubation of AfBP with hA3AR, prior to addition of radioligand. […] This difference in affinity was reflected in a shift in apparent pKi. […] To further investigate selectivity toward the hA3AR over the hA1AR, full curve displacement assays were carried out on the hA1AR.
as §3

T1 sequence (P29274 whole entry): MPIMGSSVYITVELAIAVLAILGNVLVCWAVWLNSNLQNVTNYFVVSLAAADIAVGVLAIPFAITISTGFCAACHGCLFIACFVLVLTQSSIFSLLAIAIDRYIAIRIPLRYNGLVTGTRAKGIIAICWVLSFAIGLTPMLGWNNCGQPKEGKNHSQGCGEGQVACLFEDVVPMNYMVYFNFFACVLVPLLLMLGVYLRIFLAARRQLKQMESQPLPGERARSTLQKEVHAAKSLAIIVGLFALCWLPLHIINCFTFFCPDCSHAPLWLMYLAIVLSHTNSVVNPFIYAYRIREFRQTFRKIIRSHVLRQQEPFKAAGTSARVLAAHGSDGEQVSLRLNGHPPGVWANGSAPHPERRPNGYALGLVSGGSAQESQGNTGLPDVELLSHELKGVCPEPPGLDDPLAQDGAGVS

`C#CCN(CCCn1c(=O)n(CCC)c(=O)c2c1nc1cc(OC)ccn12)C(=O)c1ccc(S(=O)(=O)F)cc1` [compound 5, 4-((3-(8-Methoxy-2,4-dioxo-3-propyl-3,4-dihydropyrido[2,1-f]purin-1(2H)-yl)propyl)(prop-2-yn-1-yl)carbamoyl)benzenesulfonyl fluoride] was tested, and the “% specific [3H]ZM241385 displacement, hA2AAR” value (human A2AAR (hA2AAR)) was 0%, the “% specific [3H]PSB-11 displacement, hA3AR” value (hA3AR [1]) was 95% and the “apparent pKi (pre-0 h)” value (hA3AR [2]) was 7.55 ± 0.01. The “apparent pKi (pre-4 h)” value (hA3AR [2]) was 8.52 ± 0.05 ^d, the “fold change, ratio Ki(0 h)/Ki(4 h)” value (hA3AR [2]) was 9.5 ± 1.0 and the “selectivity toward the hA3AR over the hA1AR” value (hA1AR) was over 100 fold.

With `C#CCOc1ccn2c(c1)nc1c2c(=O)n(CCC)c(=O)n1CCCNC(=O)c1ccc(S(=O)(=O)F)cc1` [compound 9, 4-((3-(2,4-Dioxo-8-(prop-2-yn-1-yloxy)-3-propyl-3,4-dihydropyrido[2,1-f]purin-1(2H)-yl)propyl)carbamoyl)benzenesulfonyl fluoride] the “% specific [3H]ZM241385 displacement, hA2AAR” value (human A2AAR (hA2AAR)) was 7%, the “% specific [3H]PSB-11 displacement, hA3AR” value (hA3AR [1]) was 95% and the “apparent pKi (pre-0 h)” value (hA3AR [2]) was 7.27 ± 0.07. For the same compound, the “apparent pKi (pre-4 h)” value (hA3AR [2]) was 8.40 ± 0.03 ^d, the “fold change, ratio Ki(0 h)/Ki(4 h)” value (hA3AR [2]) was 13.5 ± 1.2 and the “selectivity toward the hA3AR over the hA1AR” value (hA1AR) was over 17 fold.
